These results are taken from patent US8604206B2, “Compositions for preventing and/or treating degenerative disorders of the central nervous system” (Amicus Therapeutics, Inc., priority 2009, dated 2013).

Read-outs that look alike come from different tables or passages of the source.

A short description of data set [1]: Rat pharmacokinetics. It counts as in vivo. The settings on record: male, Sprague-Dawley, plasma; for Cmax: read-out: Cmax. As to the method: Pharmacokinetic (PK) data was obtained in rats to assess the bioavailability of test compound. In particular, the following PK parameters were calculated: bioavailability as measured by area under the Concentration/Time curve (AUC), fraction of dose available (% F; further defined below), clearance (CL), volume of distribution (Vd), and half-life (t½). […] Three rats were used per dosing group. Blood was collected over a 24-hr period. The time points for blood collection after intravenous administration were: 0, 2.5, 5, 10, 15, 30, 45 min, 1, 2, 4, 8, 12, and 24 hrs; time points for blood collection after p.o. administrations were: 0, 5, 15, 30, 45 min, 1, 2, 3, 4, 8, 12, and 24 hrs. Plasma samples were analyzed for compound levels by LC-MS/MS at PPD. Raw data was analyzed by non-compartmental analysis in Win-nonLin to calculate VD, % F, CL, and t1/2.

Data set [2] deals with recombinant human GCase (rhGCase; Cerezyme®) (Homo sapiens (Human), UniProt P04062, R534H). Briefly: In vitro enzyme inhibition assay (4-MU-β-D-Glc substrate), inhibition constants. It counts as biochemical. As for the experimental part: The binding affinity (defined here by Ki binding constant) of GCase for novel compounds of the present invention were empirically determined using enzyme inhibition assays. In brief, the enzyme inhibition assays used monitored the ability of a test compound to bind and prevent the hydrolysis of a fluorogenic substrate in a concentration-dependent mariner. Specifically, the enzyme activity of recombinant human GCase (rhGCase; Cerezyme®, Genzyme Corp.) was measured using the 4-methylumbelliferyl-β-D-glucopyranoside (4-MU-β-D-Glc) fluorogenic substrate in the absence or in the presence of varying amounts of each test compound. […] The enzyme inhibition assays were performed at both pH 7.0 (endoplasmic reticulum pH) and at pH 5.2 (lysosomal pH) to gain insight into the binding affinity (i.e., potency) of compounds for GCase in the endoplasmic reticulum and lysososome.
Various concentrations of test compounds were prepared in buffer “M” consisting of 50 mM sodium phosphate buffer with 0.25% sodium taurocholate at pH 7.0 and pH 5.2. Enzyme (Cerezyme®, a recombinant form of the human enzyme β-glucocerebrosidase) was also diluted in the same buffer “M” at pH 7.0 and pH 5.2. […] Five microliters of diluted enzyme was added to 15 μl of the various inhibitor concentrations or buffer “M” alone and incubated at 37° C. for 1 hour with 50 μl of the substrate preparation to assess β-glucosidase activity at pH 7.0 and pH 5.2. […] Fluorescence was measured on a plate reader for 1 sec/well using 355 nm excitation and 460 nm emission.

[3] abbreviates: IV, 3 mg/kg free base, AUC0-12 hr, read-out: AUClast (hr*ng/ml), AUC0-12 hr.
Where [4] appears, read: IV, 3 mg/kg free base, read-out: t1/2 (converted).
Where [5] appears, read: PO, 10 mg/kg free base, read-out: % F.
[6] abbreviates: PO, 10 mg/kg free base, read-out: t1/2 (converted).
[7] abbreviates: PO, 30 mg/kg free base, AUC0-24 hr, read-out: AUClast (hr*ng/ml), AUC0-24 hr.
Where [8] appears, read: PO, 30 mg/kg free base, read-out: % F.
The mark [9] stands for this setting: PO, 30 mg/kg free base, read-out: t1/2 (converted).
Where [10] appears, read: PO, 100 mg/kg free base, AUC0-24 hr, read-out: AUClast (hr*ng/ml), AUC0-24 hr.
The mark [11] stands for this setting: PO, 100 mg/kg free base, read-out: % F.
[12] abbreviates: PO, 100 mg/kg free base, read-out: t1/2 (converted).
The mark [13] stands for this setting: intravenous, oral, summary of Tables 4A-D, read-out: half-life.
The mark [14] stands for this setting: po, summary of Tables 4A-D, read-out: oral bioavailability.
The mark [15] stands for this setting: pH 5.2, Cheng-Prusoff from IC50, read-out: Ki (μM) pH 5.2.
The mark [16] stands for this setting: pH 5.2, read-out: IC50 (μM) pH 5.2.
Where [17] appears, read: pH 5.2, repeated in Table 3A, read-out: Ki pH 5.2.
The mark [18] stands for this setting: pH 5.2, repeated in Table 3B, read-out: Ki pH 5.2.
Where [19] appears, read: pH 7.0, Cheng-Prusoff from IC50, read-out: Ki (μM) pH 7.0.
[20] abbreviates: pH 7.0, read-out: IC50 (μM) pH 7.0.

Chain of recombinant human GCase (rhGCase; Cerezyme®) (P04062 40-536 R534H limits assumed): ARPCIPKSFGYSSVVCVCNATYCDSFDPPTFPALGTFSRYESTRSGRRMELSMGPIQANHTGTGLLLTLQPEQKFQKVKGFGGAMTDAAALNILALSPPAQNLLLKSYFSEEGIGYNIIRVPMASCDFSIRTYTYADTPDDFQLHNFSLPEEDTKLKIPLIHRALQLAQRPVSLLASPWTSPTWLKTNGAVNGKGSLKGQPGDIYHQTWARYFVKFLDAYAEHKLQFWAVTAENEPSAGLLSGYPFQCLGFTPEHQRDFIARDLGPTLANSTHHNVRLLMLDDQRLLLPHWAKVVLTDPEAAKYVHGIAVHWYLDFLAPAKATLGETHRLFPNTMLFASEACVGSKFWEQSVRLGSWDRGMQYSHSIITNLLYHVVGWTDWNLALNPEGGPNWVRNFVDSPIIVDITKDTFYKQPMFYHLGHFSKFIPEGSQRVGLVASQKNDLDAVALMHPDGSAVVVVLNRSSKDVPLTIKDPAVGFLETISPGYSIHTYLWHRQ

What is called Vd is a proportionality between amount in the body and measured concentration, not a real space. By clearance is commonly meant the rate of elimination divided by the concentration. A lower clearance goes with a low capacity for elimination. Usually Cmax stands for the peak of the concentration-time curve. One may read the Ki as a dissociation constant, usually derived from enzyme kinetics or from competition with a known ligand. As usually defined, the IC50 is the concentration needed to halve the response being measured. For the compound `O[C@@H]1[C@@H](Cc2ccccc2)CNC[C@H]1O` [(3R,4R,5S)-5-benzyl-piperidine-3,4-diol], in data set [1] (IV, 3 mg/kg free base), the Vd was 12.6 ± 1.79 L/kg. In data set [1] (IV, 3 mg/kg free base), this compound gave a clearance of 85.8 mL/min/kg. Also, the AUC(0-t) in data set [1] (setting [3]) was found to be 592 ± 60.9 ng·h/mL; in data set [1] (PO, 10 mg/kg free base, AUC0-24 hr, read-out: AUClast (hr*ng/ml), AUC0-24 hr), 1200 ± 46.4 ng·h/mL; in data set [1] (setting [7]), 3690 ± 71.5 ng·h/mL; in data set [1] (setting [10]), 13500 ± 2180 ng·h/mL. Moreover, the Cmax is 969 ± 104 ng/mL in data set [1] (IV, 3 mg/kg free base); 641 ± 48.7 ng/mL in data set [1] (PO, 10 mg/kg free base); 1700 ± 133 ng/mL in data set [1] (PO, 30 mg/kg free base); 7140 ± 1360 ng/mL in data set [1] (PO, 100 mg/kg free base). Further, the half-life was 102 ± 90 min in data set [1] (setting [4]); 232 ± 36 min in data set [1] (setting [6]); 228 ± 11.4 min in data set [1] (setting [9]); 174 ± 6.6 min in data set [1] (setting [12]); 60 to 240 min in data set [1] (setting [13]). In addition, the bioavailability was 61.7 ± 2.4% in data set [1] (setting [5]), 62.3 ± 1.2% in data set [1] (setting [8]), 68.3 ± 10.8% in data set [1] (setting [11]) and 50 to 100% in data set [1] (setting [14]). Also, the Ki stood at 0.273 ± 0.012 µM in data set [2] (setting [15]), 0.273 ± 0.012 µM in data set [2] (setting [17]), 0.273 ± 0.012 µM in data set [2] (setting [18]) and 0.067 ± 0.005 µM in data set [2] (setting [19]). Moreover, the IC50 in data set [2] (setting [16]) worked out at 0.659 ± 0.028 µM; in data set [2] (setting [20]) it was 0.127 ± 0.01 µM.
With `Cl.O[C@H]1[C@H](O)CNC[C@@H]1C(F)F` [Cmpd 6, (3R,4R,5S)-5-(Difluoromethyl)piperidine 3,4-diol Hydrochloride], in data set [1] (IV, 3 mg/kg free base), the Vd worked out at 2.61 L/kg. In data set [1] (IV, 3 mg/kg free base), this compound showed a clearance of 25.9 mL/min/kg. Also, the AUC(0-t) in data set [1] (setting [3]) worked out at 2040 ng·h/mL; in data set [1] (PO, 10 mg/kg free base, AUC0-12 hr, read-out: AUClast (hr*ng/ml), AUC0-12 hr) it was 6710 ng·h/mL; in data set [1] (setting [7]), 21700 ng·h/mL; in data set [1] (setting [10]), 79400 ng·h/mL. Also, the Cmax amounted to 2320 ng/mL in data set [1] (IV, 3 mg/kg free base); 3360 ng/mL in data set [1] (PO, 10 mg/kg free base); 10000 ng/mL in data set [1] (PO, 30 mg/kg free base); 33200 ng/mL in data set [1] (PO, 100 mg/kg free base). The half-life in data set [1] (setting [4]) was 66 min; in data set [1] (setting [6]) it was 155 min; in data set [1] (setting [9]) it was 165 min; in data set [1] (setting [12]), 145 min; in data set [1] (setting [13]), 60 to 240 min. Further, the bioavailability in data set [1] (setting [5]) was 106%; in data set [1] (setting [8]), 101%; in data set [1] (setting [11]), 121%; in data set [1] (setting [14]), 50 to 100%.
Turning to `CC[C@@H](F)[C@H]1CNC[C@@H](O)[C@@H]1O.Cl` [(3R,4R,5S)-5-((R)-1-fluoropropyl)-piperidine-3,4-diol hydrochloride], the Ki in data set [2] (setting [15]) was found to be 0.121 ± 0.0026 µM; in data set [2] (setting [17]), 0.121 ± 0.0026 µM; in data set [2] (setting [18]), 0.121 ± 0.0026 µM; in data set [2] (setting [19]) it was 0.031 ± 0.0015 µM. The IC50 in data set [2] (setting [16]) was 0.291 ± 0.006 µM; in data set [2] (setting [20]) it was 0.06 ± 0.0029 µM.
